Some results are limits rather than exact numbers.

The nature of data set [1]: Chemical stability in MV-4-11 medium. The note with it: 37° C., concentration 10 μM.
Protocol: Next, 500 μL of each solution was transferred to the 96-deep-well plate. Three replicates for each compound were performed. Plate was afterwards incubated at 37° C. with shaking (220 rpm). 50 μL of sample were withdrawn for the each timepoint (0, 1, 3, 6, 24, 48, 72, and 168 hours) and immediately mixed with 50 μL of acetonitrile. Next, samples were centrifuged at 3900 rpm, 10° C. for 20 minutes. 40 μL of supernatant was diluted with 120 μL of acetonitrile containing internal standard (IS) (10 μM), mixed, and analyzed by LC-MS/MS.
Thermo Fisher Scientific Altis+ coupled with a Vanquish system were used for UHPLC-MS/MS analysis. Analytes were separated on a Kinetex XB-C18 2.6 μm, 50×2.1 mm column, using gradient of water with 0.1% (v/v) formic acid (solvent A) and acetonitrile with 0.1% (v/v) formic acid (solvent B): 0.0 min 5% B, 0.5 min 5% B, 1.0 min 70% B, 3.0 min 95% B, 3.5 min 95% B, 3.7 min 5% B, 5 min 5% B. The mobile phase flow rate was set to 0.3 mL/min and the column was kept in 40° C. 1 μL of samples were injected. The MS/MS analysis was performed using SRM mode in positive ionization. Source parameters were set as follow: Ion Source Type H-ESI, Spray Voltage 3800 V, Sheath Gas 50 Arb, Aux Gas 10 Arb, Sweep Gas 1 Arb, Ion Transfer Tube Temp 325° C., Vaporizer Temp 350° C., Collision Gas Pressure 1.5 mTorr, Q1/Q3 Resolution (FWHM) 0.7. Three transitions were monitored for each analyte and for the internal standard:
Quantitation was based on the peak area ratio between the test compound and IS. The amount of compound remaining in the sample was calculated as follow:
The slope of logarithmic curve of percent remaining versus time has been used for calculation of half-life (t_half). First, the elimination constant (k) was calculated using the equation:
Next, half-life (t_half) was calculated using equation:
Another data set has as its system Hep3B, Kelly, KG-1. The data set is described as follows: Growth inhibition of cancer cell lines (summary statement). The note with it: hepatocellular carcinoma (Hep3B), neuroblastoma (Kelly), leukemia (KG-1). In kind it is cell-based.
The target of data set [2] is T1, [IKZF2 ZF2]-[compound]-[CRBN/DDB1] ternary complex (Homo sapiens, UniProt Q96SW2+Q9UKS7).
T1 construct: IKZF2 ZF2
T1 sequence (Q9UKS7 140-162 limits assumed): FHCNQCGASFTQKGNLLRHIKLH
T1 sequence (Q96SW2 whole entry): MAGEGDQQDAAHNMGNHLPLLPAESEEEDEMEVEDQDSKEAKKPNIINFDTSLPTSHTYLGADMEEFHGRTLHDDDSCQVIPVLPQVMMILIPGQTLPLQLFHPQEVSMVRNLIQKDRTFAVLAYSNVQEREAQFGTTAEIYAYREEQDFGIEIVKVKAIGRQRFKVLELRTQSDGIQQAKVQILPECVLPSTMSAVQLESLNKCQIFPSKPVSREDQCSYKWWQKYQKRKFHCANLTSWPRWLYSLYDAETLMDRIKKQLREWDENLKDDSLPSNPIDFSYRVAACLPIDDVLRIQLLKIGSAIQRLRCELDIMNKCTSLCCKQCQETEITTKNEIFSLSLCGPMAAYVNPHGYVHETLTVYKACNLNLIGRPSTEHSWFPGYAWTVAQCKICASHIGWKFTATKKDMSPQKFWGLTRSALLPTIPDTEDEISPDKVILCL
T1 sequence (Q16531 whole entry partner): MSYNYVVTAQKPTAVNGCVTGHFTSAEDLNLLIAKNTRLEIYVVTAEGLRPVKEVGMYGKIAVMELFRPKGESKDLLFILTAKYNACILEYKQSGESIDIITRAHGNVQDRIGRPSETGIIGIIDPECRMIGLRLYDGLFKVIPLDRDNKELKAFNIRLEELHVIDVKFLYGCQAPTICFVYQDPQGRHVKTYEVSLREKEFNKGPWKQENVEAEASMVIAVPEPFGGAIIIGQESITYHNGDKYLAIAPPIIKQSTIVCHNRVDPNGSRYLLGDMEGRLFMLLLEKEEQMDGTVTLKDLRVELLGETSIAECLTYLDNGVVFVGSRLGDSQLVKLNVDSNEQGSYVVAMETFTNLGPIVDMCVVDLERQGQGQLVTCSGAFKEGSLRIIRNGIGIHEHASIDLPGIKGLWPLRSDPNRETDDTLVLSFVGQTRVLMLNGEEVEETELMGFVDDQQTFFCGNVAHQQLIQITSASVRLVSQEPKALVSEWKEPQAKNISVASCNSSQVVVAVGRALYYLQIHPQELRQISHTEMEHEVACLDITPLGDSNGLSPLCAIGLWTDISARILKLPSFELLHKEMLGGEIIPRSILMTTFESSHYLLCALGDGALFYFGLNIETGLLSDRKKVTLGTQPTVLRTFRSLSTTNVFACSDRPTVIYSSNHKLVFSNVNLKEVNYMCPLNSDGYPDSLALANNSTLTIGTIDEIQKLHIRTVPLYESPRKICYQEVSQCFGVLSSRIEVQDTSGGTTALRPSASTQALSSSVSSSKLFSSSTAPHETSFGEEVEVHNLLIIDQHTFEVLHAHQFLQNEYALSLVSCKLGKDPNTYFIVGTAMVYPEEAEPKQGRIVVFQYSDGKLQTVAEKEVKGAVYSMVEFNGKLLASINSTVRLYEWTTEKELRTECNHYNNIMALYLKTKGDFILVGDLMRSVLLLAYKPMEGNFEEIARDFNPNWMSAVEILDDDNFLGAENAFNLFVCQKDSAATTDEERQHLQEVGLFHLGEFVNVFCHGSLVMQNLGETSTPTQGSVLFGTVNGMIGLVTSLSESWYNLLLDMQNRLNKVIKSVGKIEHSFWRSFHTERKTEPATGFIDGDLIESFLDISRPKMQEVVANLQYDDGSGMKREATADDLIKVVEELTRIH
Put plainly: AlphaLISA assay for off-target recruitment detection, IKZF2 ZF2. In kind it is binding. The note with it: 1 μM compound; normalized to Helios modulator; read-out: Normalized ternary complex response, IKZF2 ZF2. Here is the method:
(§1) The ability of the molecular glue compounds of the invention to mediate the proximity of CRBN with its known neo-substrates (shown in Table 3) was assessed using AlphaLISA to detect the formation of a [neo-substrate]-[compound of formula (I)]-[CRBN/DDB1] ternary complex.
(§2) Two types of protein solution were prepared: • neo-substrate, 40 μg/ml AlphaScreen Donor Beads (Table 3) in PBS (10 mM phosphate buffer, 137 mM NaCL, 2.7 mM KCl, pH 7.4) buffer supplemented with Tween-20 (Table 3) and 1 mM DTT, • 200 nM 6×His-CRBN/DDB1, 40 μg/ml AlphaLISA Anti-6×His Acceptor beads in PBS buffer with Tween-20 (Table 3) and 1 mM DTT.
(§3) The prepared solutions were incubated at room temperature for 30 min and then the solution containing the donor beads was mixed with the solution containing the acceptor beads.
(§4) The tested compounds were dispensed onto a white 384-well AlphaPlate 384 SW. DMSO was backfilled to all wells, resulting in a final DMSO content of 2%. Wells containing only DMSO served as background. Next, 10 μl of solution with donor and acceptor beads was added to the wells.
(§5) The plate was sealed with transparent film and shaken using a VibroTurbulator for 60 sec at room temperature, level 3. The plate was then spun down shortly (10 sec, 1000 rcf, room temperature) and incubated at 25° C. for 30 min.
(§6) The read-out was performed with PerkinElmer Enspire Multimode Plate Reader (method for AlphaLISA 384-well low volume, Filterset: λexc=680 nm, λem=615 nm).
(§7) The results were analyzed as follows: • 1) an average of luminescence for background signal was calculated and used as a negative control; • 2) an average of the maximum measured luminescence for reference compound (Table 3) was calculated and used as an internal positive control; • 3) raw luminescence values were normalized against positive and negative controls; • 4) Normalized responses to reference molecular glue were determined.
(Alpha assays give light when donor and acceptor beads are brought close together.)

In data set [3] the target is [CK1α]-[compound]-[CRBN/DDB1] ternary complex (Homo sapiens, UniProt P48729+Q96SW2). The data set is described as follows: AlphaLISA assay for off-target recruitment detection, CK1α. It is filed as binding. The settings on record: 1 μM compound; normalized to FPFT-2216; read-out: Normalized ternary complex response, CK1α. Here is the method: as §1, §2, §3, §4, §5, §6, §7
Sequence of [CK1α]-[compound]-[CRBN/DDB1] ternary complex (P48729 whole entry): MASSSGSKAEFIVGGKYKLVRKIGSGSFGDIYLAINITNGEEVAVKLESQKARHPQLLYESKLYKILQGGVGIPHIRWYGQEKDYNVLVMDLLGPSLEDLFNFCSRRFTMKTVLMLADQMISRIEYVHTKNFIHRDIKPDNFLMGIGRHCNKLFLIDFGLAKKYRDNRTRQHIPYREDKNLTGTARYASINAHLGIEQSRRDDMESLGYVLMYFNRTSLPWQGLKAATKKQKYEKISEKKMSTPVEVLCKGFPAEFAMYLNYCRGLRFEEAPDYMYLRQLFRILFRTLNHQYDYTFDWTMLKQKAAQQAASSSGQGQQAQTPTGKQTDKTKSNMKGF
Sequence of [CK1α]-[compound]-[CRBN/DDB1] ternary complex (Q96SW2 whole entry): as the sequence (Q96SW2 whole entry) above
Sequence of [CK1α]-[compound]-[CRBN/DDB1] ternary complex (Q16531 whole entry partner): as the sequence (Q16531 whole entry partner) above

For data set [4], the target named is T2, [SALL4 ZF2]-[compound]-[CRBN/DDB1] ternary complex (Homo sapiens, UniProt Q96SW2+Q9UJQ4).
T2 construct: SALL4 ZF2
T2 sequence (Q9UJQ4 410-432 limits assumed): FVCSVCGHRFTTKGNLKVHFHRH
T2 sequence (Q96SW2 whole entry): as the sequence (Q96SW2 whole entry) above
T2 sequence (Q16531 whole entry partner): as the sequence (Q16531 whole entry partner) above
Put plainly: AlphaLISA assay for off-target recruitment detection, SALL4 ZF2. In kind it is binding. The note with it: 1 μM compound; normalized to Lenalidomide; read-out: Normalized ternary complex response, SALL4 ZF2. Here is the method:
as §1, §2, §3, §4, §5, §6, §7

The target of data set [5] is T3, [GSPT1]-[compound of formula (I)]-[CRBN/DDB1] complex (Homo sapiens, UniProt P15170+Q96SW2). The data set is described as follows: HTRF ternary complex assay (GSPT1). It is filed as binding. The settings on record: read-out: HTRF ternary complex Average pEC50 by molecule (converted). Here is the method:
The effect of the molecular glue compounds of the invention on the formation of a ternary complex composed of [GSPT1]-[compound of formula (I)]-[CRBN/DDB1] was investigated.
Mix solution of proteins and reagents was prepared: • 48 nM GSPT1, 52.8 nM 6×His-CRBN/DDB1, 3 nM of Streptavidin-Eu cryptate ([…]) and 6.67 nM of Anti-6×his-d2 ([…]) was prepared in PPI Europium detection buffer (purchased from Cisbio) with 1 mM DTT.
The tested compounds in dose-response were dispensed onto a white 384-well low volume plate (Greiner, 784075). DMSO was backfilled to all wells, resulting in a final DMSO content of 0.5%. Wells containing only DMSO served as background.
The plate was sealed with transparent film and shaken using a VibroTurbulator for 60 sec at level 3.
The plate was then spun down shortly (10 sec, 1000 rcf) and incubated at 25° C. for 180 min.
The read-out was performed with plate reader (Pherastar, BMG Labtech) in time resolved fluorescence mode. Filter settings: TR 337 665 620.
The results were analyzed as follows: • 1) an average of fluorescence for background signal was calculated and used as a negative control; • 2) raw fluorescence values for tested compounds were normalized against negative controls; • 3) saturation curve was fitted to specific binding with Hill slope model; • 4) EC50 and pEC50 values were determined.
For orientation: Time-resolved FRET reads energy transfer from a long-lived donor to a nearby acceptor.

Data set [6] addresses T4, [IKZF1 ZF2]-[compound]-[CRBN/DDB1] ternary complex (Homo sapiens, UniProt Q13422+Q96SW2).
T4 construct: IKZF1 ZF2
The data set is described as follows: AlphaLISA assay for off-target recruitment detection, IKZF1 ZF2. It is filed as binding. The settings on record: 1 μM compound; normalized to Lenalidomide; read-out: Normalized ternary complex response, IKZF1 ZF2. Here is the method:
as §1, §2, §3, §4, §5, §6, §7

Data set [7] addresses CRBN/DDB1 protein complex (Homo sapiens, UniProt Q96SW2). The data set is described as follows: CRBN displacement TR-FRET assay. The settings on record: Thalidomide-Red tracer, 6×His-CRBN/DDB1; read-out: CRBN binding Ki. Here is the method: CRBN/DDB1 protein complex was mixed with Thalidomide-Red and a compound to be tested (the “test compound”). The test solution contained PPI Europium detection buffer, 1 mM DTT, 6.8 nM Thalidomide-Red (the tracer), 5 nM 6×His-CRBN/DDB1 protein, 0.5 nM Anti-6× His-Eu cryptate, 1% DMSO. The test solution was added to a 384-well assay plate.
The plate was spun-down (1 min, 1000 rpm, 22° C.) and then shaken using a VibroTurbulator for 30 sec at room temperature (20-25° C.), with the frequency set to level 10. The assay plate with protein and the tracer was incubated for 180 min at room temperature (20-25° C.) prior to read-out with a plate reader. The read-out was performed with plate reader (Pherastar, BMG Labtech) in time resolved fluorescence mode. Filter settings: TR 337 665 620.
The CRBN displacement TR-FRET experiment was carried out with various concentrations of the test compounds in order to measure Ki values.
The Ki values of competitive inhibitors were calculated using the equation based on the IC50 values of relationship between compound concentration and measured […], the Kd value of the Thalidomide-Red and CRBN/DDB1 complex, and the concentrations of the protein and the tracer in the displacement assay (as described by Cheng and Prusoff, Biochem Pharmacol 1973; 22:3099-3108).

Data set [8] has as its target T3, [GSPT1]-[compound of formula (I)]-[CRBN/DDB1] complex. Put plainly: AlphaLISA ternary complex formation assay (GSPT1). The settings on record: 0.5 h; 1 μM compound; normalized to reference compound CC-885; read-out: Normalized AlphaLISA ternary complex average signal at 1 μM molecule. In kind it is binding. Here is the method:
The effect of the molecular glue compounds of the invention on the formation of a ternary complex composed of [GSPT1]-[compound of formula (I)]-[CRBN/DDB1] was investigated with two methods: AlphaLISA dose response assay or HTRF ternary complex assay.
Two types of protein solution were prepared: • 200 nM biotinylated GSPT1 (Table 3), 40 μg/ml AlphaScreen Streptavidin-coated Donor Beads in HBS (10 mM HEPES, 150 mM NaCL, pH 7.4) buffer with 0.1% Tween-20 and 1 mM DTT, • 200 nM 6×His-CRBN/DDB1, 40 μg/ml AlphaLISA Anti-6×His Acceptor beads in HBS buffer with 0.1% Tween-20 and 1 mM DTT.
as §3, §4, §5, §6
The results were analyzed as follows: • 1) an average of luminescence for background signal was calculated and used as a negative control; • 2) average of the maximum measured luminescence for reference compound (structure shown in Table 3 below) was calculated and used as an internal positive control; • 3) raw luminescence values were normalized against positive and negative controls; • 4) Normalized responses to positive control were determined.

T4 sequence (Q13422 145-167 limits assumed): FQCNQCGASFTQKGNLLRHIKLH
T4 sequence (Q96SW2 whole entry): as the sequence (Q96SW2 whole entry) above
T4 sequence (Q16531 whole entry partner): as the sequence (Q16531 whole entry partner) above
Sequence of CRBN/DDB1 protein complex (Q96SW2 whole entry, species assumed): as the sequence (Q96SW2 whole entry) above
Sequence of CRBN/DDB1 protein complex (Q16531 whole entry partner, species assumed): as the sequence (Q16531 whole entry partner) above
T3 sequence (P15170 whole entry): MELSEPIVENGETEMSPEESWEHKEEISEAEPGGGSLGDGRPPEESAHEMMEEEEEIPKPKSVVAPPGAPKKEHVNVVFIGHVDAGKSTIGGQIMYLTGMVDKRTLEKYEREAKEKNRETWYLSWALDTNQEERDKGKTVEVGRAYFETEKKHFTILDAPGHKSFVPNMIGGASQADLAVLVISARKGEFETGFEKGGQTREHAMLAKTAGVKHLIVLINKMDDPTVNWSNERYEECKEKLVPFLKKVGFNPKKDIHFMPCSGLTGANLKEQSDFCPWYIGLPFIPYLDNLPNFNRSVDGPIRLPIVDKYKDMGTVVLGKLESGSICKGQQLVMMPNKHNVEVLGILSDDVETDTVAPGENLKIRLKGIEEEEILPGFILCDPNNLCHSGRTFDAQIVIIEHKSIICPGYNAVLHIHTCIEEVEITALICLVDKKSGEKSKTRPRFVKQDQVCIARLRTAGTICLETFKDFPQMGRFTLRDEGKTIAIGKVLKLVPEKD
T3 sequence (Q96SW2 whole entry): as the sequence (Q96SW2 whole entry) above
T3 sequence (Q16531 whole entry partner): as the sequence (Q16531 whole entry partner) above

`Cc1nc2cccc(N)c2c(=O)n1C1CCC(=O)NC1=O` (stereo not drawn) [avadomide]: in data set [1], the “% remaining at 24 hrs” value is “d (5%≤d<10%)” and the “t_half [hours]” value is “C (5 hrs≤C<10 hrs)”.

With `Nc1cccc2c1C(=O)N(C1CCC(=O)NC1=O)C2=O` (stereo not drawn) [pomalidomide], in data set [1], the “% remaining at 24 hrs” value was “e (e<5%)” and the “t_half [hours]” value is “D (D<5 hrs)”. The “inhibition of growth of cancer types” value with Hep3B, Kelly, KG-1 was “inactive”.

On to `O=C1CCC(N2Cc3cc(CNC(=O)C(F)(F)c4ccc(Cl)cc4)ccc3C2=O)C(=O)N1` (stereo not drawn) [eragidomide], for which the “t_half [hours]” value in data set [1] is “D (D<5 hrs)”.

As to `Cc1ccc(-c2nnc(NCc3ccc4cc(C5CCC(=O)NC5=O)c(C)nc4c3)o2)cc1Cl` (stereo not drawn) [Compound 13, 3-(7-(((5-(3-chloro-4-methylphenyl)-1,3,4-oxadiazol-2-yl)amino)methyl)-2-methylquinolin-3-yl)piperidine-2,6-dione], the activation at 1 µM in data set [2] is under 10%; in [3], under 10%; in data set [4], under 10%; in data set [6], under 10%; in [8], 10 to 50%. Further, the EC50 in [5] was over 3.16 µM. Also, the Ki in data set [7] is under 0.5 µM.

As for `Nc1cccc2c1CN(C1CCC(=O)NC1=O)C2=O` (stereo not drawn) [lenalidomide], in [1], the “% remaining at 24 hrs” value is recorded as “e (e<5%)” and the “t_half [hours]” value is “D (D<5 hrs)”. Also, in the data set on Hep3B, Kelly, KG-1, the “inhibition of growth of cancer types” value is “inactive”.

`Cc1ccc(NC(=O)OCc2cc3nc(C)c(C4CCC(=O)NC4=O)cc3cc2C)cc1Cl` (stereo not drawn) [Compound 68, (3-(2,6-dioxopiperidin-3-yl)-2,6-dimethylquinolin-7-yl)methyl (3-chloro-4-methylphenyl)carbamate]: the activation at 1 µM in data set [2], in data set [3], in data set [4], in data set [6] and in [8] was under 10% throughout. Besides, the EC50 in [5] is over 3.16 µM. Besides, the Ki in data set [7] is over 1 µM.

In the case of `Cc1nc2ccc(COC(=O)NC3CCCCC3)cc2cc1N1CCC(=O)NC1=O` [Compound 60, (3-(2,4-dioxotetrahydropyrimidin-1(2H)-yl)-2-methylquinolin-6-yl)methyl cyclohexylcarbamate], the activation at 1 µM was under 10% in data set [2]; under 10% in data set [3]; at least 50% in [4]; 10 to 25% in [6]; 10 to 50% in data set [8]. Moreover, the EC50 in data set [5] was 0.316 to 3.16 µM. Further, the inhibition constant Ki in [7] lay in the range of 0.5 to 1 µM.

One may read the Ki as a measure of affinity in units of concentration, obtained from inhibition or displacement.

The record behind these values is patent US20260232682A1, “GSPT1 DEGRADER COMPOUNDS” (Captor Therapeutics S.A., priority 2023, published 2026).
